In patent publication US6407124B1, “Carbon substituted aminothiazole inhibitors of cyclin dependent kinases” (Bristol-Myers Squibb Company, priority 1998, dated 2002):

SMILES | melting point [°C]
CCOC(=O)/C=C/c1cnc(NC(C)=O)s1 [Example 1, Ethyl 3-((E)-2-acetamido-thiazol-5-yl)-acrylate] | 239 to 240
CC(=O)Nc1ncc(/C=C/c2ncc(C(C)(C)C)o2)s1 [Example 2, N-[(E)-5-(2-(5-t-butyl-oxazol-2-yl)-vinyl)-thiazol-2-yl]-acetamide] | 275
